From patent US11130752B2, “Aminopyrimidine compound” (Cardurion Pharmaceuticals, LLC, priority 2018, dated 2021) come the findings set out here.

SMILES strings stand for the structures. Where a name gives a salt, the structure may show the parent alone.

The first assay addresses T1, human CaMKIIδ (Homo sapiens, UniProt Q13557).
T1 construct: Full-length, glutathione-S-transferase(GST)-tagged, human CaMKIIδ was purchased from Carna Biosciences; purchased Carna Biosciences (CaMKIIδ); Wako Pure Chemical Industries (calmodulin) 02-111
In words: In vitro CaMKII inhibitory activity (binding assay, TR-FRET). The conditions noted are these: Table 1, GST-tagged human CaMKIIδ, activity ranks. As for the experimental part:
Evaluation of In Vitro CaMKII Inhibitory Activity (Binding Assay)
In vitro CaMKIIδ inhibitory activity was evaluated by a binding assay.
Full-length, glutathione-S-transferase(GST)-tagged, human CaMKIIδ was purchased from Carna Biosciences (product #02-111, Kobe, Japan). Full-length bovine calmodulin was purchased from Wako Pure Chemical Industries (Osaka, Japan). Terbium-labeled anti-GST antibody (Tb-anti-GST Ab) was purchased from Life Technologies (Carlsbad, Calif., USA). Boron-dipyrromethene (BODIPY)-labeled probe ligand was synthesized as described below.
Time-Resolved Fluorescence Resonance Energy Transfer (TR-FRET) Assay
All assays were conducted using 384-well, white, flat-bottomed plates (product #784075, Greiner Bio-One, Frickenhausen, Germany) in kinase assay buffer, which consists of 50 mM HEPES pH 7.6, 10 mM MgCl2, 1 mM EGTA, 0.01% Brig-35, 0.1 mM DTT). The fluorescent probe ligand was added at a final concentration of 300 nM to solutions containing 0.21 nM Tb-anti-GST Ab, 1 mM CaCl2, 10 μg/mL calmodulin, and 0.5 nM GST-tagged CaMKIIδ. After shaded incubation of the protein-probe mixture on ice for 30 min, the premix was dispensed in the assay plate including test inhibitors with 4 fold dilution series of eight concentrations. After 1 hr incubation at room temperature, TR-FRET signals were measured in duplicate using an EnVision microplate reader (Perkin Elmer, Waltham, Mass., USA). The solution in each well was excited with a laser (λ=340 nm) reflected by a dichroic mirror (D400/D505 (Perkin Elmer) through an excitation filter (UV (TRF) 340, (Perkin Elmer)), and fluorescence from Tb and BODIPY were detected through two emission filters (CFP 495 (Perkin Elmer) for Tb, Emission 520 (Perkin Elmer) for BODIPY).
The percentage of inhibition of test compounds was calculated according to equation (1) Inhibition(%)=100×(μH−T)/(μH−μL) (1)
Where T is the value of the wells containing test compounds and μH and μL are the mean values of the 0% and 100% inhibition control wells, respectively. The values of the 0 and 100% controls were the signals obtained in the absence and presence of 3 μM its parent compound, respectively. The half maximal inhibitory concentration (IC50) of test compounds was calculated by fitting the data with the logistic equation using XLfit (IDBS, Guildford, UK). The IC50 was classified according to the following activity ranks.
`C[C@@H](Cn1cnnn1)Oc1cc(-c2cnc(Nc3cn([C@H]4CC[C@H](N5[C@@H]6CC[C@H]5COC6)CC4)nc3OCCCS(C)(=O)=O)nc2)ccc1Cl` [Example 142, 5-(3-(((S)-1-(1H-tetrazol-1-yl)propan-2-yl)oxy)-4-chlorophenyl)-N-(1-((1r,4r)-4-((1R,5S)-3-oxa-8-azabicyclo[3.2.1]octan-8-yl)cyclohexyl)-3-(3-(methylsulfonyl)propoxy)-1H-pyrazol-4-yl)pyrimidin-2-amine]: the concentration for half-maximal inhibition (IC50) was less than 10 nM.
On the same count and under the same terms, the same measure for `COCCCCOc1nn([C@H]2CC[C@H](N3CCOCC3)CC2)cc1Nc1ncc(-c2ccc(C#N)c(O[C@@H](C)Cn3cnnn3)c2)cn1` [Example 150, 2-(((S)-1-(1H-tetrazol-1-yl)propan-2-yl)oxy)-4-(2-((3-(4-methoxybutoxy)-1-((1r,4r)-4-morpholinocyclohexyl)-1H-pyrazol-4-yl)amino)pyrimidin-5-yl)benzonitrile]: less than 10 nM; for `COCCCCOc1nn([C@H]2CC[C@H](N3CCOCC3)CC2)cc1Nc1ncc(-c2ccc(Cl)c(O[C@@H](C)Cn3cnnn3)c2)cn1` [Example 151, 5-(3-(((S)-1-(1H-tetrazol-1-yl)propan-2-yl)oxy)-4-chlorophenyl)-N-(3-(4-methoxybutoxy)-1-((1r,4r)-4-morpholinocyclohexyl)-1H-pyrazol-4-yl)pyrimidin-2-amine]: less than 10 nM.
The compound `COCCOCCOc1nn([C@H]2CC[C@H](N3C[C@@H](C)O[C@@H](C)C3)CC2)cc1Nc1ncc(-c2ccc(Cl)c(O[C@@H](C)Cn3cnnn3)c2)cn1` [Example 240, 5-(3-(((S)-1-(1H-tetrazol-1-yl)propan-2-yl)oxy)-4-chlorophenyl)-N-(1-((1r,4r)-4-((2S,6R)-2,6-dimethylmorpholino)cyclohexyl)-3-(2-(2-methoxyethoxy)ethoxy)-1H-pyrazol-4-yl)pyrimidin-2-amine hydrochloride] registered an IC50 of less than 10 nM.
On to `CCOCCCOc1nn([C@H]2CC[C@H](N3[C@@H]4CC[C@H]3COC4)CC2)cc1Nc1ncc(-c2ccc(Cl)c(O[C@@H](C)Cn3cnnn3)c2)cn1` [Example 242, 5-(3-(((S)-1-(1H-tetrazol-1-yl)propan-2-yl)oxy)-4-chlorophenyl)-N-(1-((1r,4r)-4-((1R,5S)-3-oxa-8-azabicyclo[3.2.1]octan-8-yl)cyclohexyl)-3-(3-ethoxypropoxy)-1H-pyrazol-4-yl)pyrimidin-2-amine], for which the half-maximal inhibitory concentration (IC50) was less than 10 nM.
On the same count and under the same terms, the same measure for `C[C@@H](Cn1cnnn1)Oc1cc(-c2cnc(Nc3cn([C@H]4CC[C@H](N5[C@@H]6CC[C@H]5COC6)CC4)nc3OCCO)nc2)ccc1Cl` [Example 243, 2-((4-((5-(3-(((S)-1-(1H-tetrazol-1-yl)propan-2-yl)oxy)-4-chlorophenyl)pyrimidin-2-yl)amino)-1-((1r,4r)-4-((1R,5S)-3-oxa-8-azabicyclo[3.2.1]octan-8-yl)cyclohexyl)-1H-pyrazol-3-yl)oxy)ethan-1-ol]: less than 10 nM.
Same read-out and setting: the same measure for `C[C@@H](Cn1cnnn1)Oc1cc(-c2cnc(Nc3cn([C@H]4CC[C@H](N5[C@@H]6CC[C@H]5COC6)CC4)nc3OCCO)nc2)ccc1C#N` [Example 244, 2-(((S)-1-(1H-tetrazol-1-yl)propan-2-yl)oxy)-4-(2-((1-((1r,4r)-4-((1R,5S)-3-oxa-8-azabicyclo[3.2.1]octan-8-yl)cyclohexyl)-3-(2-hydroxyethoxy)-1H-pyrazol-4-yl)amino)pyrimidin-5-yl)benzonitrile]: less than 10 nM.
Still for that read-out and setting: the result for `C[C@@H](Cn1cnnn1)Oc1cc(-c2cnc(Nc3cn([C@H]4CC[C@H](N5CCOCC5)CC4)nc3O)nc2)ccc1C#N` [Example 461, 2-(((S)-1-(1H-tetrazol-1-yl)propan-2-yl)oxy)-4-(2-((3-hydroxy-1-((1r,4r)-4-morpholinocyclohexyl)-1H-pyrazol-4-yl)amino)pyrimidin-5-yl)benzonitrile] reads less than 10 nM; that for `C[C@@H](Cn1cnnn1)Oc1cc(-c2cnc(Nc3cn([C@H]4CC[C@H](N5CCOCC5)CC4)nc3O)nc2)ccc1Cl` [Example 462, 4-((5-(3-(((S)-1-(1H-tetrazol-1-yl)propan-2-yl)oxy)-4-chlorophenyl)pyrimidin-2-yl)amino)-1-((1r,4r)-4-morpholinocyclohexyl)-1H-pyrazol-3-ol], less than 10 nM.

Still in this assay, the particulars now being: Table 4, GST-tagged human CaMKIIδ, activity ranks.
On to `C[C@@H]1CN([C@H]2CC[C@H](n3cc(Nc4ncc(-c5ccc(Cl)c(O[C@@H](C)Cn6cnnn6)c5)cn4)c(OCc4nncn4C)n3)CC2)C[C@H](C)O1` [Example 473, 5-(3-(((S)-1-(1H-tetrazol-1-yl)propan-2-yl)oxy)-4-chlorophenyl)-N-(1-((1r,4r)-4-((2S,6R)-2,6-dimethylmorpholino)cyclohexyl)-3-((4-methyl-4H-1,2,4-triazol-3-yl)methoxy)-1H-pyrazol-4-yl)pyrimidin-2-amine], for which the IC50 is less than 10 nM.
Same read-out and setting: the same measure for `C[C@@H]1CN([C@H]2CC[C@H](n3cc(Nc4ncc(-c5ccc(Cl)c(O[C@@H](C)Cn6cnnn6)c5)cn4)c(OCCCOCCO)n3)CC2)C[C@H](C)O1` [Example 474, 2-(3-((4-((5-(3-(((S)-1-(1H-tetrazol-1-yl)propan-2-yl)oxy)-4-chlorophenyl)pyrimidin-2-yl)amino)-1-((1r,4r)-4-((2S,6R)-2,6-dimethylmorpholino)cyclohexyl)-1H-pyrazol-3-yl)oxy)propoxy)ethan-1-ol]: less than 10 nM; for `C[C@@H]1CN([C@H]2CC[C@H](n3cc(Nc4ncc(-c5ccc(Cl)c(O[C@@H](C)Cn6cnnn6)c5)cn4)c(OCCCO)n3)CC2)C[C@H](C)O1` [Example 475, 3-((4-((5-(3-(((S)-1-(1H-tetrazol-1-yl)propan-2-yl)oxy)-4-chlorophenyl)pyrimidin-2-yl)amino)-1-((1r,4r)-4-((2S,6R)-2,6-dimethylmorpholino)cyclohexyl)-1H-pyrazol-3-yl)oxy)propan-1-ol]: less than 10 nM; for `Cc1ncc(COc2nn([C@H]3CC[C@H](N4C[C@@H](C)O[C@@H](C)C4)CC3)cc2Nc2ncc(-c3ccc(C#N)c(O[C@@H](C)Cn4cnnn4)c3)cn2)s1` [Example 476, 2-(((S)-1-(1H-tetrazol-1-yl)propan-2-yl)oxy)-4-(2-((1-((1r,4r)-4-((2S,6R)-2,6-dimethylmorpholino)cyclohexyl)-3-((2-methylthiazol-5-yl)methoxy)-1H-pyrazol-4-yl)amino)pyrimidin-5-yl)benzonitrile]: less than 10 nM.
Compound `COC(C)(C)CCOc1nn([C@H]2CC[C@H](N3C[C@@H](C)O[C@@H](C)C3)CC2)cc1Nc1ncc(-c2ccc(C#N)c(O[C@@H](C)Cn3cnnn3)c2)cn1` [Example 478, 2-(((S)-1-(1H-tetrazol-1-yl)propan-2-yl)oxy)-4-(2-((1-((1r,4r)-4-((2S,6R)-2,6-dimethylmorpholino)cyclohexyl)-3-(3-methoxy-3-methylbutoxy)-1H-pyrazol-4-yl)amino)pyrimidin-5-yl)benzonitrile] had an IC50 of less than 10 nM.
`C[C@@H]1CN([C@H]2CC[C@H](n3cc(Nc4ncc(-c5ccc(C#N)c(O[C@@H](C)Cn6cnnn6)c5)cn4)c(OCC4COC4)n3)CC2)C[C@H](C)O1` [Example 479, 2-(((S)-1-(1H-tetrazol-1-yl)propan-2-yl)oxy)-4-(2-((1-((1r,4r)-4-((2S,6R)-2,6-dimethylmorpholino)cyclohexyl)-3-(oxetan-3-ylmethoxy)-1H-pyrazol-4-yl)amino)pyrimidin-5-yl)benzonitrile] came in with an IC50 of less than 10 nM.
In turn, `C[C@@H]1CN([C@H]2CC[C@H](n3cc(Nc4ncc(-c5ccc(Cl)c(O[C@@H](C)Cn6cnnn6)c5)cn4)c(OCC4COC4)n3)CC2)C[C@H](C)O1` [Example 480, 5-(3-(((S)-1-(1H-tetrazol-1-yl)propan-2-yl)oxy)-4-chlorophenyl)-N-(1-((1r,4r)-4-((2S,6R)-2,6-dimethylmorpholino)cyclohexyl)-3-(oxetan-3-ylmethoxy)-1H-pyrazol-4-yl)pyrimidin-2-amine] had an IC50 of less than 10 nM.
On the same count and under the same terms, the result for `C[C@@H]1CN([C@H]2CC[C@H](n3cc(Nc4ncc(-c5ccc(Cl)c(O[C@@H](C)Cn6cnnn6)c5)cn4)c(OCCO)n3)CC2)C[C@H](C)O1` [Example 481, 2-((4-((5-(3-(((S)-1-(1H-tetrazol-1-yl)propan-2-yl)oxy)-4-chlorophenyl)pyrimidin-2-yl)amino)-1-((1r,4r)-4-((2S,6R)-2,6-dimethylmorpholino)cyclohexyl)-1H-pyrazol-3-yl)oxy)ethan-1-ol] reads less than 10 nM.

What is called IC50 is the concentration that gives 50% inhibition. Lower therefore signals greater potency in that assay.
